Source: patent publication US10183021B2, “sGC stimulators” (Ironwood Pharmaceuticals, Inc., priority 2013, dated 2019)

Target: soluble guanylate cyclase (sGC) (Homo sapiens (Human), UniProt Q02108+Q02153)
Assay: sGC-HEK-cGMP assay with SNP incubation, LC/MS detection (Example 2A)
Type: cell-based
Conditions: HEK293 cells, 10 μM SNP, LC/MS detection; for Emax: 100% = BAY 41-2272 at 10 μM, read-out: HEK assay Emax - unconstrained (%); for EC50: top of curve not fitted to 100%, read-out: HEK assay EC50 - unconstrained
Method: Human embryonic kidney cells (HEK293), endogenously expressing soluble guanylate cyclase (sGC), were used to evaluate the activity of test compounds. Compounds stimulating the sGC receptor should cause an increase in the intracellular concentration of cGMP. HEK 293 cells were seeded in Dulbecco's Modification of Eagle's Medium supplemented with fetal bovine serum (10% final) and L-glutamine (2 mM final) in a 200 L volume at a density of 1×10^5 cells/well in a poly-D-lysine coated 96 well flat bottom plate and grown overnight at 37° C. Medium was aspirated and cells were washed with 1× Hank's Buffered Saline Salt Solution (200 μL). Cells were then incubated for 15 minutes at 37° C. with 200 μL of a 0.5 mM 3-isobutyl-1-methylxanthine (IBMX) solution. Test article and sodium nitroprusside solutions (x μM concentration for test article solution and 10 μM concentration for SNP solution; wherein x is one of the following concentrations: 30 μM, 10 μM, 3 μM, 1 μM, 0.3 μM, 0.1 μM, 0.03 μM, 0.01 μM, 0.003 μM, 0.001 μM, 0.0003 μM or 0.0001 μM) were then added to the assay mixture (2 μL each) and the resulting mixture incubated at 37° C. for 10 minutes. After the 10 minute incubation, the assay mixture was aspirated and 0.1M HCl (200 μL) was added to the cells. The plate was incubated at 4° C. for 30 minutes in the 0.1M HCl to stop the reaction and lyse the cells. The plates were then centrifuged at 1,200 g for 5 minutes at room temperature. Supernatants were collected and transferred to a new flat bottom 96 well plate for analysis by HPLC-MS. Vehicle controls were carried out using DMSO (1%) solutions. A known sGC stimulator, BAY 41-2272, was used as the positive control. Samples were diluted with an equal volume of 1 M Ammonium Acetate (pH 7) to neutralize samples for better chromatography. A 2× cGMP standard solution was prepared in 0.1 M HCl and then diluted with an equal volume of 1 M Ammonium Acetate, with the following final concentrations in nM: 1024, 512, 256, 128, 64, 32, 16, 8, 4, 2, 1. cGMP concentrations in the test plates were determined from each sample using the LC/MS conditions shown in Table 2 below and the calculated cGMP standard curve. EC50 values were calculated from concentration-response curves generated with GraphPad Prism Software. Data were normalized to a high control using the following equation: 100*(Sample−Low Control)/(High Control−Low Control), where the low control is the average of 6 samples treated with 1% DMSO, and the high control is the average of 8-12 samples treated with 10 uM BAY 41-2272. Data were fit using a non-linear regression, sigmoidal dose response, 3 parameter fits.

Chain of soluble guanylate cyclase (sGC) (Q02153 whole entry): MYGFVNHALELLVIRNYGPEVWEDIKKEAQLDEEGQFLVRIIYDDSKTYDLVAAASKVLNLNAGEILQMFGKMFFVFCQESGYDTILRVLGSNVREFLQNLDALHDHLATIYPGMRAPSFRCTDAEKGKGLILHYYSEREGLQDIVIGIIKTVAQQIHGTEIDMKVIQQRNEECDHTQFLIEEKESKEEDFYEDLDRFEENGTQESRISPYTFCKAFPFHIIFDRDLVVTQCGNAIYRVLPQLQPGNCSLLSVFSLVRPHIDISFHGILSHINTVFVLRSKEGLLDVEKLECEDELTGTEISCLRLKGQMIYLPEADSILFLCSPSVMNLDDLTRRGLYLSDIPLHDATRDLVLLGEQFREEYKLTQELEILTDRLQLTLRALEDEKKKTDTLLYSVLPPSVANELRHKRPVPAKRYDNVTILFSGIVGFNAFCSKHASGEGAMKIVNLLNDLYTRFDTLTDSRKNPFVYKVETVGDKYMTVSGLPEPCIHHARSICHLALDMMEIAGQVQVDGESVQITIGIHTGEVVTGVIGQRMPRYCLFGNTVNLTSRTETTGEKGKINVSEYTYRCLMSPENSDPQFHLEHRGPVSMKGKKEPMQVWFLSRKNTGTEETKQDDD
Chain of soluble guanylate cyclase (sGC) (Q02108 whole entry): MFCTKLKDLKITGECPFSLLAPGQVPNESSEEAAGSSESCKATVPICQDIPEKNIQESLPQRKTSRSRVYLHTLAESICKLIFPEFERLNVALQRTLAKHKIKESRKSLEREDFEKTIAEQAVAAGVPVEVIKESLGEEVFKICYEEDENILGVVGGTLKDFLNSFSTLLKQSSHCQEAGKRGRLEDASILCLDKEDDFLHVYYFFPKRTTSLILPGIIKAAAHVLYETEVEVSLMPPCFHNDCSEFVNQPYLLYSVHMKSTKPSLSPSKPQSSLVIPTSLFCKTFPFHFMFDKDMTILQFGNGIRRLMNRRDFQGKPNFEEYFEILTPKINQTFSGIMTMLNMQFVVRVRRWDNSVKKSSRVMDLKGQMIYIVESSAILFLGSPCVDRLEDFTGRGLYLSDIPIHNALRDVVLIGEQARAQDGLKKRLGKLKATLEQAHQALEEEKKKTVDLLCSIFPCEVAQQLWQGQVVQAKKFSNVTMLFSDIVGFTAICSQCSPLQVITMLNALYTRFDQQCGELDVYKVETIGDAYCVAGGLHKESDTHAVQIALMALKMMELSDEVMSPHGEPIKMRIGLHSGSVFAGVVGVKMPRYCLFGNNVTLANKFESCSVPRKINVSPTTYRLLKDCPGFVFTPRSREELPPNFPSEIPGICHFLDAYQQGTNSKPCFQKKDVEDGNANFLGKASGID

SMILES | Emax [%] | EC50 [µM]
Fc1ccccc1Cn1nc(-c2ncc(F)c(-n3cccn3)n2)cc1-c1ccon1 [Compound I-74] | 40 to 60 | 1 to 5
O=C(O)[C@H](CO)Nc1nc(-c2cc(-c3ccon3)n(Cc3ccccc3F)n2)ncc1F [Compound I-68] | 60 to 80 | 5 to 10
O=C(O)[C@H](Cc1ccccc1)Nc1nc(-c2cc(-c3ccon3)n(Cc3ccccc3F)n2)ncc1F [Compound I-80] | 80 to 100 | 0.5 to 1
O=C(O)COC1CCN(c2nc(-c3cc(-c4ccon4)n(Cc4ccccc4F)n3)ncc2F)CC1 [Compound I-197] | 80 to 100 | 1 to 5
Fc1ccccc1Cn1nc(-c2ncc(F)c(N3CC(F)(F)C3)n2)cc1-c1ccon1 [Compound I-61] | 80 to 100 | 0.5 to 1
O=C(O)[C@H]1Cc2ccccc2N1c1nc(-c2cc(-c3ccon3)n(Cc3ccccc3F)n2)ncc1F [Compound I-91] | 40 to 60 | 5 to 10
CC(C)(C)OC(=O)N1CCN(c2nc(-c3cc(-c4ccon4)n(Cc4ccccc4F)n3)ncc2F)C(CO)C1 (centres unmarked) [Compound I-184] | 80 to 100 | 0.5 to 1
Fc1ccccc1Cn1nc(-c2ncc(F)c(N3CCn4cnnc4C3)n2)cc1-c1ccon1 [Compound I-113] | 60 to 80 | 0.5 to 1
Cc1noc(CN(C)c2nc(-c3cc(-c4ccon4)n(Cc4ccccc4F)n3)ncc2F)n1 [Compound I-223] | 40 to 60 | 1 to 5
CC(C)(C)[C@H](Nc1nc(-c2cc(-c3ccon3)n(Cc3ccccc3F)n2)ncc1F)C(=O)O [Compound I-151] | 60 to 80 | 0.5 to 1
CCC1(C(=O)O)CCN(c2nc(-c3cc(-c4ccon4)n(Cc4ccccc4F)n3)ncc2F)CC1 [Compound I-189] | 60 to 80 | 0.1 to 0.5
O=C(O)[C@H](Nc1nc(-c2cc(-c3ccon3)n(Cc3ccccc3F)n2)ncc1F)c1ccccc1 [Compound I-118] | 80 to 100 | 1 to 5

More lines, now with the values ahead:

Emax [%] | EC50 [µM] | SMILES
100 to 120 | 0.1 to 0.5 | CCOC(=O)CN(CC1CC1)c1nc(-c2cc(-c3ccon3)n(Cc3ccccc3F)n2)ncc1F [Compound I-201]
60 to 80 | 0.1 to 0.5 | CC1(CC(=O)O)CCN(c2nc(-c3cc(-c4ccon4)n(Cc4ccccc4F)n3)ncc2F)CC1 [Compound I-289]
60 to 80 | 0.1 to 0.5 | COC(=O)C1(N)CCN(c2nc(-c3cc(-c4ccon4)n(Cc4ccccc4F)n3)ncc2F)CC1 [Compound I-298]
80 to 100 | 0.001 to 0.1 | CN(Cc1ccc(C(=O)O)cc1)c1nc(-c2cc(-c3ccon3)n(Cc3ccccc3F)n2)ncc1F [Compound I-275]
80 to 100 | 0.1 to 0.5 | CC(C)(C)OC(=O)NS(=O)(=O)N1CCN(c2nc(-c3cc(-c4ccon4)n(Cc4ccccc4F)n3)ncc2F)CC1 [Compound I-139]
80 to 100 | 0.1 to 0.5 | CC(C)(C)[C@@H](Nc1nc(-c2cc(-c3ccon3)n(Cc3ccccc3F)n2)ncc1F)C(=O)O [Compound I-148]
60 to 80 | 0.1 to 0.5 | OC1CCN(c2nc(-c3cc(-c4ccon4)n(Cc4ccccc4F)n3)ncc2F)C1 (centres unmarked) [Compound I-20]
60 to 80 | 0.1 to 0.5 | CN(C)c1nc(-c2cc(-c3ccon3)n(Cc3ccccc3F)n2)ncc1F [Compound I-8]
60 to 80 | 0.001 to 0.1 | CCC(CC)(CN(C)c1nc(-c2cc(-c3ccon3)n(Cc3ccccc3F)n2)ncc1F)C(=O)O [Compound I-252]
60 to 80 | 0.001 to 0.1 | O=C(O)C1c2ccccc2CCN1c1nc(-c2cc(-c3ccon3)n(Cc3ccccc3F)n2)ncc1F (centres unmarked) [Compound I-97]
80 to 100 | 0.001 to 0.1 | CC(C)[C@H](CC(=O)O)Nc1nc(-c2cc(-c3ccon3)n(Cc3ccccc3F)n2)ncc1F [Compound I-182]
60 to 80 | 0.1 to 0.5 | N#CC1CCN(c2nc(-c3cc(-c4ccon4)n(Cc4ccccc4F)n3)ncc2F)CC1 [Compound I-123]
40 to 60 | 0.1 to 0.5 | NC(=O)C1CCCCN1c1nc(-c2cc(-c3ccon3)n(Cc3ccccc3F)n2)ncc1F (centres unmarked) [Compound I-105]
